Laboratory results: patent US7960560B2, “1-(biphenyl-4-ylmethyl)imidazolidine-2,4-dione” (N.V. Organon, priority 2008, dated 2011)

Columns and labels:
[1] = system: mechanical hyperalgesia induced by complete Freund's adjuvant in rats; experiment: Mechanical hyperalgesia in the rat (CFA model of inflammatory pain); format: in vivo; details: for % Attenuation of hyperalgesia (peak effect): male Wistar rats, 24 h after CFA, reading 3 h post drug, vehicle −0.6 ± 11
Experimental: Mechanical Hyperalgesia in the Rat
In this rat model of inflammatory pain, inflammation is induced by subcutaneous injection of complete Freund's adjuvant (CFA) into the hind paw. The associated mechanical hyperalgesia is quantified by measuring the reduction in paw withdrawal threshold (PWT) to a mechanical compression of the paw.
Experiments were in male Wistar rats weighing (141-175 g). In brief, the rats' paw withdrawal threshold (PWT) to a mechanical compression of the hind paw was measured (baseline reading) using a Randall-Sellito apparatus (Ugo Basile). A cut-off of 20 g was employed to minimise tissue damage to the paw. The animals were then lightly anaesthetised with isoflurane (1-3%) and CFA (0.1 ml.paw^−1) injected subcutaneously (s.c.) into the plantar surface of the left hind paw. The animals were then returned to their home cage and left for the inflammation to develop.
Twenty four h after CFA injection, PWT's were re-measured (0 min) and immediately after this reading, rats were dosed orally with either vehicle or compound 3K (4.5-45 μmol/kg p.o.) Readings were then made at 3 h post drug administration.
Data were plotted as mean±s.e.m. and compared between groups using the Kruskal-Wallis one-way analysis of variance, a non-parametric statistical test.
The percent attenuation of mechanical hyperalgesia is calculated as follows.

[2] = system: mechanical allodynia induced by spinal nerve ligation in rats; experiment: The rat (Chung) model of neuropathic pain; format: in vivo; details: for Withdrawal threshold (g) at peak effect: male Wistar rats, von Frey, vehicle 2.7 ± 0.2
Experimental: The Rat (Chung) Model of Neuropathic Pain
In this model, mechanical allodynia is induced by tight ligation of the left L5 spinal nerve.
Male Wistar rats (228-301 g body weight at time of surgery) were employed in the study. Rats were placed on an elevated (˜40 cm) mesh floor in perspex boxes and the rats' withdrawal threshold to a mechanical stimulus (calibrated von Frey filaments) was measured using filaments of increasing force (2.6-167 mN). The von Frey filaments were applied to the plantar surface of the paw and threshold response determined using the up and down method. A positive response was noted if the paw was sharply withdrawn. A cut-off of 15 g was selected as the upper limit for testing. Following baseline measurements each animal was anaesthetised and the L5 spinal nerve tightly ligated. The animals were allowed to recover from the surgery for a period of at least three days. On the day of drug administration the paw withdrawal thresholds were re-measured (0 min). Immediately after this reading, the rats were dosed orally with vehicle or test compound and readings measured at various time points after compound administration.
Data were expressed as mean±s.e.m. Statistical analysis was performed using the Kruskal-Wallis one-way analysis of variance, a non-parametric statistical test. Each of the treatment groups were then compared against the vehicle group, using the non-parametric Dunn's test.

O=C1CN(Cc2ccc(-c3ccccc3CN3CCOCC3)cc2)C(=O)N1CC1CC1 [Example 3K, 3-Cyclopropylmethyl-1-(2′-(morpholin-4-ylmethyl)biphenyl-4-ylmethyl)imidazolidine-2,4-dione]
% Attenuation of hyperalgesia (peak effect) ([1]; 4.5 μmol/kg p.o.): 36 ± 11% | % Attenuation of hyperalgesia (peak effect) ([1]; 45 μmol/kg p.o., p ≦ 0.001): 100 ± 25 % | Effect on mechanical hyperalgesia induced by CFA ([1]; 4.5-45 μmol/kg oral): reversed mechanical hyperalgesia induced by CFA in a dose-dependent fashion | MED ([1]; p.o., CFA-induced mechanical hyperalgesia, rat): 4.4 µmol/kg | Withdrawal threshold (g) at peak effect ([2]; 4.5 μmol/kg p.o.): 5.8 ± 1.1 g | Withdrawal threshold (g) at peak effect ([2]; 15 μmol/kg p.o., p ≦ 0.05): 6.4 ± 1.0 g | Withdrawal threshold (g) at peak effect ([2]; 45 μmol/kg p.o., p ≦ 0.05): 7.4 ± 1.3 g | Effect on mechanical allodynia ([2]; 4.5-45 μmol/kg p.o., at 120 and 180 min post drug administration): attenuated mechanical allodynia in a dose-dependent fashion | Minimum effective dose (MED) ([2]; p.o., mechanical allodynia, rat): 15 µmol/kg
